In PubChem BioAssay AID256 (DTP/NCI, 2004):
Where “and” joins values, the source holds several entries; their conditions need not be identical. Equal values may be shown once. Inconclusive results and toxic doses are left out. Rule for the calls: active = survival T/C of 150% or more; inactive = T/C below 125% in these data.

Test system: CD2F1 mice, L1210 leukemia ip, survival T/C
Assay: NCI In Vivo Anticancer Drug Screen. Data for tumor model L1210 Leukemia (intraperitoneal) in CD2F1 (CDF1) mice
Conditions: higher = longer survival
Summary of the method: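 Compound-dosed mice with transplantable tumor versus matched vehicle controls; endpoint ratio T/C reported.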

[1] = endpoint: mean survival time, dose: 25.0 mg/kg/injection, schedule: Q04DX003 (ip), vehicle: saline with Tween-80
[2] = endpoint: mean survival time, dose: 100.0 mg/kg/injection, schedule: Q04DX003 (ip), vehicle: saline with Tween-80
[3] = endpoint: mean survival time, dose: 200.0 mg/kg/injection, schedule: Q04DX003 (ip), vehicle: saline with Tween-80
[4] = endpoint: mean survival time, dose: 400.0 mg/kg/injection, schedule: Q04DX003 (ip), vehicle: saline with Tween-80
[5] = endpoint: mean survival time, dose: 100.0 mg/kg/injection, schedule: Q01DX001 (ip), vehicle: saline
[6] = endpoint: mean survival time, dose: 200.0 mg/kg/injection, schedule: Q01DX001 (ip), vehicle: saline
[7] = endpoint: mean survival time, dose: 400.0 mg/kg/injection, schedule: Q01DX001 (ip), vehicle: saline
[8] = endpoint: mean survival time, dose: 50.0 mg/kg/injection, schedule: Q01DX009 (ip), vehicle: saline
[9] = endpoint: mean survival time, dose: 100.0 mg/kg/injection, schedule: Q01DX009 (ip), vehicle: saline
[10] = endpoint: mean survival time, dose: 100.0 mg/kg/injection, schedule: Q01DX009 (ip), vehicle: saline with Tween-80
[11] = endpoint: mean survival time, dose: 200.0 mg/kg/injection, schedule: Q01DX009 (ip), vehicle: saline with Tween-80
[12] = endpoint: mean survival time, dose: 400.0 mg/kg/injection, schedule: Q01DX009 (ip), vehicle: saline with Tween-80

Measured: T/C

CC(=O)CC(=O)C(F)(F)F.CC(=O)CC(=O)C(F)(F)F.[O]=[V]
inactive: endpoint: mean survival time, dose: 3.8 mg/kg/injection, schedule: Q01DX009 (ip), vehicle: saline with Tween-80 95 % of control | endpoint: mean survival time, dose: 7.5 mg/kg/injection, schedule: Q01DX009 (ip), vehicle: saline with Tween-80 93 % of control | endpoint: mean survival time, dose: 15.0 mg/kg/injection, schedule: Q01DX009 (ip), vehicle: saline with Tween-80 92 % of control

CCCC1CC[N-]CC1.CCCC1CC[N-]CC1.[Cl][Pt+2]([Cl])([Cl])[Cl]
inactive: endpoint: mean survival time, dose: 12.5 mg/kg/injection, schedule: Q01DX009 (ip), vehicle: saline sonified 114 % of control | [1] 98 % of control

Cc1ccc2ncccc2c1[N+](=O)[O-]
inactive: [2] 101 % of control | [3] 95 % of control

CC(C)(C)OC(=O)NOC(=O)C(C)(C)C
inactive: [1] 101 % of control | endpoint: mean survival time, dose: 50.0 mg/kg/injection, schedule: Q04DX003 (ip), vehicle: saline with Tween-80 100 % of control | [2] 96 % of control | [3] 89 % of control | [4] 87 % of control

Cc1cccc(C(=O)OCCBr)c1
inactive: endpoint: mean survival time, dose: 75.0 mg/kg/injection, schedule: Q01DX009 (ip), vehicle: saline with Tween-80 102 % of control

Cc1ccc(S(=O)(=O)N/N=C2/CC3CCC(C)(C2)C3)cc1 (stereo not given)
inactive: [4] 94 % of control

CCC(C)(CC)OC(=O)c1ccc([N+](=O)[O-])cc1
inactive: [5] 100 % of control | [6] 98 % of control | [7] 98 % of control

FC1CC=C(S)CC1 (stereo not given)
inactive: endpoint: mean survival time, dose: 5.0 mg/kg/injection, schedule: Q01DX001 (ip), vehicle: saline 100 % of control | endpoint: mean survival time, dose: 10.0 mg/kg/injection, schedule: Q01DX001 (ip), vehicle: saline 106 % of control | endpoint: mean survival time, dose: 20.0 mg/kg/injection, schedule: Q01DX001 (ip), vehicle: saline 103 % of control | endpoint: mean survival time, dose: 40.0 mg/kg/injection, schedule: Q01DX001 (ip), vehicle: saline 100 % of control | endpoint: mean survival time, dose: 80.0 mg/kg/injection, schedule: Q01DX001 (ip), vehicle: saline 102 % of control

CC1CCC2(CC1=O)C(C)CC(=O)C2C(C)C (stereo not given)
inactive: endpoint: mean survival time, dose: 100.0 mg/kg/injection, schedule: Q04DX003 (ip), vehicle: saline 95 % of control | endpoint: mean survival time, dose: 200.0 mg/kg/injection, schedule: Q04DX003 (ip), vehicle: saline 98 % of control | endpoint: mean survival time, dose: 400.0 mg/kg/injection, schedule: Q04DX003 (ip), vehicle: saline 98 % of control

CC(C)(C)N1OC1c1ccccc1 (stereo not given)
inactive: [5] 103 % of control | [6] 105 % of control | [7] 97 % of control

C[n+]1cccc(CCc2ccc[n+](C)c2)c1
inactive: [8] 92 % of control | [9] 104 % of control

NCCCC(N)C(=O)O (stereo not given)
inactive: endpoint: median survival time, dose: 3.13 mg/kg/injection, schedule: Q04DX002 (ip), vehicle: saline 111 % of control | endpoint: median survival time, dose: 6.25 mg/kg/injection, schedule: Q04DX002 (ip), vehicle: saline 117 % of control | endpoint: median survival time, dose: 12.5 mg/kg/injection, schedule: Q04DX002 (ip), vehicle: saline 108 % of control | endpoint: median survival time, dose: 50.0 mg/kg/injection, schedule: Q04DX002 (ip), vehicle: saline 105 % of control

COc1cc(NCCCNCC(C)(C)C)c2ncccc2c1
inactive: endpoint: mean survival time, dose: 1.25 mg/kg/injection, schedule: Q01DX009 (ip), vehicle: Klucel (hydroxypropylcellulose) (HPC) 98 % of control | endpoint: mean survival time, dose: 2.5 mg/kg/injection, schedule: Q01DX009 (ip), vehicle: Klucel (hydroxypropylcellulose) (HPC) 105 % of control | endpoint: mean survival time, dose: 5.0 mg/kg/injection, schedule: Q01DX009 (ip), vehicle: Klucel (hydroxypropylcellulose) (HPC) 100 % of control | endpoint: mean survival time, dose: 10.0 mg/kg/injection, schedule: Q01DX009 (ip), vehicle: Klucel (hydroxypropylcellulose) (HPC) 105 % of control

CCC1=[N+]([O-])[N+]([O-])=C(c2ccccc2)C1=O
inactive: endpoint: mean survival time, dose: 50.0 mg/kg/injection, schedule: Q01DX009 (ip), vehicle: other 93 % of control | endpoint: mean survival time, dose: 100.0 mg/kg/injection, schedule: Q01DX009 (ip), vehicle: other 101 % of control | endpoint: mean survival time, dose: 200.0 mg/kg/injection, schedule: Q01DX009 (ip), vehicle: other 93 % of control

O=C1C=CC(=O)c2c1ccc1ccccc21
inactive: endpoint: mean survival time, dose: 12.5 mg/kg/injection, schedule: Q01DX001 (ip), vehicle: acetone 104 % of control | endpoint: mean survival time, dose: 25.0 mg/kg/injection, schedule: Q01DX001 (ip), vehicle: acetone 105 % of control | endpoint: mean survival time, dose: 50.0 mg/kg/injection, schedule: Q01DX001 (ip), vehicle: acetone 105 % of control

CC1CC(C)/C(=N/NC(N)=S)C(C(O)CC2CC(=O)NC(=O)C2)C1 (stereo not given)
inactive: endpoint: mean survival time, dose: 25.0 mg/kg/injection, schedule: Q01DX009 (ip), vehicle: saline 94 % of control and 100 % of control | [8] 100 % of control and 102 % of control | [9] 97 % of control and 103 % of control | endpoint: mean survival time, dose: 200.0 mg/kg/injection, schedule: Q01DX009 (ip), vehicle: saline 113 % of control and 102 % of control | endpoint: mean survival time, dose: 400.0 mg/kg/injection, schedule: Q01DX009 (ip), vehicle: saline 113 % of control and 114 % of control

CCOC(=O)CC(=O)c1ccccc1
inactive: [10] 96 % of control | [11] 102 % of control | [12] 89 % of control

CN(C)C(=O)Nc1ccc(Cl)cc1
inactive: endpoint: median survival time, dose: 12.5 mg/kg/injection, schedule: Q01DX009 (ip), vehicle: saline 100 % of control | endpoint: median survival time, dose: 25.0 mg/kg/injection, schedule: Q01DX009 (ip), vehicle: saline 100 % of control | endpoint: median survival time, dose: 50.0 mg/kg/injection, schedule: Q01DX009 (ip), vehicle: saline 103 % of control | endpoint: median survival time, dose: 100.0 mg/kg/injection, schedule: Q01DX009 (ip), vehicle: saline 100 % of control | endpoint: median survival time, dose: 200.0 mg/kg/injection, schedule: Q01DX009 (ip), vehicle: saline 101 % of control | endpoint: median survival time, dose: 400.0 mg/kg/injection, schedule: Q01DX009 (ip), vehicle: saline 100 % of control

CN(C)CC(C)(C)C(=O)c1ccc(Cl)cc1
inactive: endpoint: mean survival time, dose: 100.0 mg/kg/injection, schedule: Q04DX002 (ip), vehicle: saline 93 % of control | endpoint: mean survival time, dose: 200.0 mg/kg/injection, schedule: Q04DX002 (ip), vehicle: saline 89 % of control

C(C#CCN1CCOCC1)#CCN1CCOCC1
inactive: endpoint: mean survival time, dose: 6.25 mg/kg/injection, schedule: Q01DX009 (ip), vehicle: Klucel (hydroxypropylcellulose) (HPC) 96 % of control | endpoint: mean survival time, dose: 12.5 mg/kg/injection, schedule: Q01DX009 (ip), vehicle: Klucel (hydroxypropylcellulose) (HPC) 91 % of control | endpoint: mean survival time, dose: 12.5 mg/kg/injection, schedule: Q01DX009 (ip), vehicle: saline with Tween-80 95 % of control and 101 % of control | endpoint: mean survival time, dose: 25.0 mg/kg/injection, schedule: Q01DX009 (ip), vehicle: Klucel (hydroxypropylcellulose) (HPC) 100 % of control | endpoint: mean survival time, dose: 25.0 mg/kg/injection, schedule: Q01DX009 (ip), vehicle: saline with Tween-80 95 % of control and 98 % of control | endpoint: mean survival time, dose: 50.0 mg/kg/injection, schedule: Q01DX009 (ip), vehicle: Klucel (hydroxypropylcellulose) (HPC) 105 % of control | endpoint: mean survival time, dose: 50.0 mg/kg/injection, schedule: Q01DX009 (ip), vehicle: saline with Tween-80 93 % of control and 95 % of control | endpoint: mean survival time, dose: 100.0 mg/kg/injection, schedule: Q01DX009 (ip), vehicle: Klucel (hydroxypropylcellulose) (HPC) 100 % of control | [10] 88 % of control and 90 % of control and 96 % of control | [2] 102 % of control | endpoint: mean survival time, dose: 200.0 mg/kg/injection, schedule: Q01DX009 (ip), vehicle: Klucel (hydroxypropylcellulose) (HPC) 91 % of control | [11] 95 % of control (2×) and 96 % of control | [3] 96 % of control | endpoint: mean survival time, dose: 400.0 mg/kg/injection, schedule: Q01DX009 (ip), vehicle: Klucel (hydroxypropylcellulose) (HPC) 97 % of control | [12] 95 % of control and 100 % of control and 101 % of control | [4] 102 % of control

c1ccc2c(c1)Oc1ccccc1C2C1c2ccccc2Oc2ccccc21
inactive: [2] 100 % of control | [3] 100 % of control | [4] 116 % of control

CC1=C(C(N)=O)C(c2ccccc2)NC(=S)N1 (stereo not given)
inactive: endpoint: median survival time, dose: 25.0 mg/kg/injection, schedule: Q01DX009 (ip), vehicle: Klucel (hydroxypropylcellulose) (HPC) 101 % of control | endpoint: median survival time, dose: 50.0 mg/kg/injection, schedule: Q01DX009 (ip), vehicle: Klucel (hydroxypropylcellulose) (HPC) 105 % of control | endpoint: median survival time, dose: 100.0 mg/kg/injection, schedule: Q01DX009 (ip), vehicle: Klucel (hydroxypropylcellulose) (HPC) 102 % of control | endpoint: median survival time, dose: 200.0 mg/kg/injection, schedule: Q01DX009 (ip), vehicle: Klucel (hydroxypropylcellulose) (HPC) 112 % of control | endpoint: median survival time, dose: 400.0 mg/kg/injection, schedule: Q01DX009 (ip), vehicle: Klucel (hydroxypropylcellulose) (HPC) 103 % of control

O=C(O)CCCCCc1ccccc1
inactive: [10] 96 % of control | [2] 102 % of control | [11] 95 % of control | [3] 91 % of control | [12] 101 % of control | [4] 101 % of control
